In ChEMBL document CHEMBL1132978, “Artificial neural network applied to prediction of fluorquinolone antibacterial activity by topological methods” (2000):
Values after ≈ are worked out from the molar mass of the structure shown.

Test system: Escherichia coli
Experiment: Minimum inhibitory concentration against Escherichia coli
Format: functional

Structure (SMILES) | MIC [µg/mL]
CN1CCN(c2cc3c(cc2F)c(=O)c(C(=O)O)cn3C2CC2)CC1 | 0.05 (≈ 0.145 µM)
CC(C)(C)n1cc(C(=O)O)c(=O)c2cc(F)c(N3CCC(N)C3)cc21 (configuration not stated) | 0.2 (≈ 0.576 µM)
NC1CCN(c2c(F)cc3c(=O)c(C(=O)O)cn(C4CC4)c3c2C(F)(F)F)C1 (configuration not stated) | 0.1 (≈ 0.25 µM)
CNCC1CCN(c2nc3c(cc2F)c(=O)c(C(=O)O)cn3C2CC2)C1 (configuration not stated) | 0.1 (≈ 0.277 µM)
CCn1cc(C(=O)O)c(=O)c2cc(F)c(N3CCC(CN)C3)c(F)c21 (configuration not stated) | 0.1 (≈ 0.285 µM)
NCC1CCCN(c2c(F)cc3c(=O)c(C(=O)O)cn(C4CC4)c3c2N)C1 (configuration not stated) | 0.4 (≈ 1.07 µM)
Nc1c(F)c(N2CCC(N)C2)cc2c1c(=O)c(C(=O)O)cn2C1CC1 (configuration not stated) | 0.013 (≈ 0.0375 µM)
CCNCC1CCN(c2cc3c(cc2F)c(=O)c(C(=O)O)cn3-c2ccc(F)cc2F)C1 (configuration not stated) | 0.4 (≈ 0.898 µM)
CN(C)CC1CCN(c2cc3c(cc2F)c(=O)c(C(=O)O)cn3C2CC2)C1 (configuration not stated) | 0.2 (≈ 0.536 µM)
CCn1cc(C(=O)O)c(=O)c2cc(F)c(N3CCNC(C)C3)cc21 (configuration not stated) | 0.2 (≈ 0.6 µM)
CCNCC1CCN(c2c(F)cc3c(=O)c(C(=O)O)cn(C4CC4)c3c2C(F)(F)F)C1 (configuration not stated) | 0.4 (≈ 0.906 µM)
CCN1CCN(c2cc3c(cc2F)c(=O)c(C(=O)O)cn3C2CC2)CC1 [ENROFLOXACIN] | 0.05 (≈ 0.139 µM)
O=C(O)c1cn(-c2ccc(F)cc2F)c2cc(N3CCNCC3)c(F)cc2c1=O | 0.1 (≈ 0.248 µM)
CC(N)C1CCN(c2c(F)cc3c(=O)c(C(=O)O)cn(C4CC4)c3c2F)C1 (configuration not stated) | 0.013 (≈ 0.0344 µM)
CC1CN(c2cc3c(cc2F)c(=O)c(C(=O)O)cn3-c2ccc(F)cc2F)CC(C)N1 (configuration not stated) | 0.4 (≈ 0.927 µM)
CCOc1c(N2CCC(C)(CN)C2)c(F)cc2c(=O)c(C(=O)O)cn(C3CC3)c12 (configuration not stated) | 0.2 (≈ 0.496 µM)
CCOc1c(N2CCC(N)C2)c(F)c(N)c2c(=O)c(C(=O)O)cn(C3CC3)c12 (configuration not stated) | 0.05 (≈ 0.128 µM)
COc1c(N2CCC(N)C2)c(F)cc2c(=O)c(C(=O)O)cn(C3CC3)c12 (configuration not stated) | 0.025 (≈ 0.0692 µM)
NCC1CCN(c2c(F)c(N)c3c(=O)c(C(=O)O)cn(C4CC4)c3c2F)C1 (configuration not stated) | 0.013 (≈ 0.0344 µM)
COc1c(N2CCCC(N)C2)c(F)c(N)c2c(=O)c(C(=O)O)cn(C3CC3)c12 (configuration not stated) | 0.1 (≈ 0.256 µM)
COc1c(N2CCC(C)(CN)C2)c(F)c(N)c2c(=O)c(C(=O)O)cn(C3CC3)c12 (configuration not stated) | 0.1 (≈ 0.247 µM)
CCOc1c(N2CCCC(CN)C2)c(F)cc2c(=O)c(C(=O)O)cn(C3CC3)c12 (configuration not stated) | 0.2 (≈ 0.496 µM)
NC1CCN(c2c(F)cc3c(=O)c(C(=O)O)cn(C4CC4)c3c2Cl)C1 (configuration not stated) [CLINAFLOXACIN] | 0.013 (≈ 0.0355 µM)
CNCC1CCN(c2cc3c(cc2F)c(=O)c(C(=O)O)cn3-c2ccc(F)cc2F)C1 (configuration not stated) | 0.2 (≈ 0.464 µM)
CC1(CN)CCN(c2c(F)c(N)c3c(=O)c(C(=O)O)cn(C4CC4)c3c2F)C1 (configuration not stated) | 0.2 (≈ 0.51 µM)
CCOc1c(N2CCC(C)(CN)C2)c(F)c(N)c2c(=O)c(C(=O)O)cn(C3CC3)c12 (configuration not stated) | 0.2 (≈ 0.478 µM)

Structure (SMILES) | MIC [µg/mL]
CCn1cc(C(=O)O)c(=O)c2cc(F)c(N3CCC(CNC)C3)cc21 (configuration not stated) | 3.1 (≈ 8.92 µM)
CNCC1CCN(c2cc3c(cc2F)c(=O)c(C(=O)O)cn3C(C)(C)C)C1 (configuration not stated) | 0.4 (≈ 1.07 µM)
CCn1cc(C(=O)O)c(=O)c2cc(F)c(N3CCC(N)C3)c(F)c21 (configuration not stated) | 0.05 (≈ 0.148 µM)
CC1CN(c2cc3c(cc2F)c(=O)c(C(=O)O)cn3C(C)C)CC(C)N1 (configuration not stated) | 1.6 (≈ 4.43 µM)
NC1CCN(c2cc3c(cc2F)c(=O)c(C(=O)O)cn3C2CC2)C1 (configuration not stated) | 0.05 (≈ 0.151 µM)
CCN1CCN(c2cc3c(cc2F)c(=O)c(C(=O)O)cn3-c2ccc(F)cc2F)CC1 | 0.4 (≈ 0.927 µM)
CCn1cc(C(=O)O)c(=O)c2cc(F)c(N3CC(C)NC(C)C3)cc21 (configuration not stated) | 0.4 (≈ 1.15 µM)
O=C(O)c1cn(C2CCC2)c2cc(N3CCNCC3)c(F)cc2c1=O | 0.4 (≈ 1.16 µM)
CCN1CCN(c2cc3c(cc2F)c(=O)c(C(=O)O)cn3CC)CC1 | 0.1 (≈ 0.288 µM)
COc1c(N2CCC(C)(CN)C2)c(F)cc2c(=O)c(C(=O)O)cn(C3CC3)c12 (configuration not stated) | 0.1 (≈ 0.257 µM)
COc1c(N2CCCC(CN)C2)c(F)cc2c(=O)c(C(=O)O)cn(C3CC3)c12 (configuration not stated) | 0.2 (≈ 0.514 µM)
CNCC1CCN(c2cc3c(cc2F)c(=O)c(C(=O)O)cn3C2CCC2)C1 (configuration not stated) | 0.8 (≈ 2.14 µM)
CC(C)(C)n1cc(C(=O)O)c(=O)c2cc(F)c(N3CCNCC3)cc21 | 0.2 (≈ 0.576 µM)
CCC1CN(c2cc3c(cc2F)c(=O)c(C(=O)O)cn3-c2ccc(F)cc2F)CCN1 (configuration not stated) | 0.4 (≈ 0.927 µM)
NC1CCN(c2cc3c(cc2F)c(=O)c(C(=O)O)cn3C2CCC2)C1 (configuration not stated) | 0.4 (≈ 1.16 µM)
CC1CN(c2cc3c(cc2F)c(=O)c(C(=O)O)cn3C(C)(C)C)CC(C)N1 (configuration not stated) | 0.2 (≈ 0.533 µM)
CCOc1c(N2CCC(C)C2)c(F)cc2c(=O)c(C(=O)O)cn(C3CC3)c12 (configuration not stated) | 0.05 (≈ 0.134 µM)
CCOc1c(N2CCNC(C)C2)c(F)cc2c(=O)c(C(=O)O)cn(C3CC3)c12 (configuration not stated) | 0.1 (≈ 0.257 µM)
CCNCC1CCN(c2c(F)c(N)c3c(=O)c(C(=O)O)cn(C4CC4)c3c2F)C1 (configuration not stated) | 0.05 (≈ 0.123 µM)
CC(C)n1cc(C(=O)O)c(=O)c2cc(F)c(N3CCNCC3)cc21 | 0.8 (≈ 2.4 µM)
CCNCC1CCN(c2cc3c(c(N)c2F)c(=O)c(C(=O)O)cn3C2CC2)C1 (configuration not stated) | 0.1 (≈ 0.257 µM)
CC1(CN)CCN(c2nc3c(cc2F)c(=O)c(C(=O)O)cn3C2CC2)C1 (configuration not stated) | 0.2 (≈ 0.555 µM)
NC1CCN(c2nc3c(cc2F)c(=O)c(C(=O)O)cn3C2CC2)C1 (configuration not stated) | 0.013 (≈ 0.0391 µM)
CCn1cc(C(=O)O)c(=O)c2cc(F)c(N3CCNCC3)cc21 [NORFLOXACIN] | 0.1 (≈ 0.313 µM)
CCN1CCN(c2cc3c(cc2F)c(=O)c(C(=O)O)cn3C2CCC2)CC1 | 0.8 (≈ 2.14 µM)
CC1(CN)CCN(c2cc3c(cc2F)c(=O)c(C(=O)O)cn3C2CC2)C1 (configuration not stated) | 0.1 (≈ 0.278 µM)
